Measured values from patent publication US9556162B2, “Compound for the treatment of hepatitis C” (Bristol-Myers Squibb Company, priority 2013, dated 2017).

How the values were obtained:
[1] = biological target: T1, NS5B enzyme, HCV genotype 1b (Con1) (Hepatitis C virus genotype 1b, UniProt Q9WMX2); assay: HCV NS5B RdRp enzyme assay; type: biochemical; conditions: 1b NS5B enzyme, 24 h preincubation, [33P]-GTP incorporation
T1 construct: Each untagged protein was expressed with an 18 amino acid C-terminal truncation to enhance the solubility; made in house; host or cells: E. coli BL21(DE3), pET21a vector
T1 sequence (Q9WMX2 2420-2992): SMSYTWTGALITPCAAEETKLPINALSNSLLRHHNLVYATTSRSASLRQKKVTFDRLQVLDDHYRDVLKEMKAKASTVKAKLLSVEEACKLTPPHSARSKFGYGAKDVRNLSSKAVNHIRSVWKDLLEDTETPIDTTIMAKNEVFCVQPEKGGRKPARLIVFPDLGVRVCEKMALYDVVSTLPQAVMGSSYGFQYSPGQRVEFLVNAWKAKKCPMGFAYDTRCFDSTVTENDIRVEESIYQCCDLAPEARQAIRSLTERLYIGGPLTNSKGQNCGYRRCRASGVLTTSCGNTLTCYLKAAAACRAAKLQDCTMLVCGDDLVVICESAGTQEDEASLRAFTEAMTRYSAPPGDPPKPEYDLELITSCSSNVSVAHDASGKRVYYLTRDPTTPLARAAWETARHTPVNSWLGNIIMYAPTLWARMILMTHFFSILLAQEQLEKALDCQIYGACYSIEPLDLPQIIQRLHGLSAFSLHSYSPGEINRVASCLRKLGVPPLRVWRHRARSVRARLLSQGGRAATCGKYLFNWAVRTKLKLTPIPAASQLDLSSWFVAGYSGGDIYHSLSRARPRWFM
Protocol: The cDNA encoding NS5B proteins of HCV genotype 1b (Con1), a genotype 1b variant with amino acid 316 mutated from cysteine to asparagine, and genotype 2a (JFH-1), were cloned into the pET21a expression vector. Each untagged protein was expressed with an 18 amino acid C-terminal truncation to enhance the solubility. The E. coli competent cell line BL21(DE3) was used for expression of the protein. Cultures were grown at 37° C. for ˜4 hours until the cultures reached an optical density of 2.0 at 600 nm. The cultures were cooled to 20° C. and induced with 1 mM IPTG. Fresh ampicillin was added to a final concentration of 50 μg/mL and the cells were grown overnight at 20° C.
Cell pellets (3 L) were lysed for purification to yield 15-24 mgs of purified NS5B. […]
HCV NS5B RdRp enzyme assay. […] The newly synthesized RNA product was precipitated by 10% TCA and quantified on the Packard Top Count NXT. IC50 values for compounds were determined using seven different [I]. IC50 values were calculated from the inhibition using the four-parameter logistic formula y=A+((B−A)/(1+((C/x)^D))), where A and B denote minimal and maximal % inhibition, respectively, C is the IC50, D is hill slope and x represents compound concentration.

[2] = test system: genotype 1b (Con-1) HCV replicon; assay: HCV replicon luciferase assay; type: cell-based; conditions: Hepatitis C virus, Huh-7, 72 h
Protocol: The cell lines used to evaluate compounds consist of a human hepatocyte derived cell line (Huh-7) that constitutively expresses a genotype 1b (Con-1) HCV replicon or a genotype 1b (Con-1) HCV replicon with an asparagine replacing the cysteine at amino acid 316, or a genotype 2a (JFH-1) replicon, containing a Renilla luciferase reporter gene. These cells were maintained in Dulbecco's modified Eagle medium (DMEM) containing 10% FBS, 100 U/mL penicillin/streptomycin and 1.0 mg/mL G418.
To evaluate compound efficacy, titrated compounds were transferred to sterile 384-well tissue culture treated plates, and the plates were seeded with HCV replicon cells (50 μL at a density of 2.4×10^3 cells/well) in DMEM containing 4% FBS (final DMSO concentration at 0.5%). After 3 days incubation at 37 C, cells were analyzed for Renilla Luciferase activity using the EnduRen substrate (Promega cat #E6485) according to the manufacturer's directions. […] The plates were incubated for at least 1 h at 37° C. then read on a Viewlux Imager (PerkinElmer) using a luminescence program. […]
To assess cytotoxicity of compounds, Cell Titer-Blue (Promega) was added to the EnduRen-containing plates and incubated for at least 4 h at 37° C. The fluorescence signal from each well was read using a Viewlux Imager. All CC50 values were calculated using the four-parameter logistic formula.

[3] = test system: HCV; conditions: cited from earlier work

Row | Compound | IC50 [1] | EC50 [2] | toxicity during extended dosing of the combination regimens ([3]; patients, combined with interferon and ribavirin) | HCV RNA levels in patients ([3]; single agent: transient decrease then rebound during dosing)
1 | CC[C@@H](C)c1cc2oc(-c3ccc(F)cc3)c(C(=O)NC)c2cc1-c1cccc(C(=O)NC(C)(C)c2ncon2)c1 (single isomer, unassigned) [Enantiomer 2] | 2.3 nM | 5.5 nM | – | –
2 | CNC(=O)c1c(-c2ccc(F)cc2)oc2cc(N(CCO)S(C)(=O)=O)c(C3CC3)cc12 [HCV-796] | – | – | hepatic toxicity | reduce HCV RNA levels
